The record followed here is patent US12503452B2 (Curza Global, LLC, priority 2019, dated 2025).

The subject of experiment [1] is E. coli S30 extract (bacterial protein synthesis). Briefly: E. coli S30 extract coupled transcription-translation luciferase assay (inhibition of bacterial protein synthesis). The experiment is classed as biochemical. Conditions: read-out: S30 IC50 (μM/% inhib.). The method, then: E. coli S30 extract: Inhibition of bacterial protein synthesis was determined using the E. coli S30 Extract System for Circular DNA (Promega catalog #L-2010) and Luciferase Assay Reagent (Promega catalog #E1500) with slight modifications to a published protocol. Fyfe, C., Sutcliffe, J. A. and Grossman, T. H. (2012) “Development and characterization of a Pseudomonas aeruginosa in vitro coupled transcription-translation assay system for evaluation of translation inhibitors” J. Microbiol. Methods 90(3), 256-261.
Compounds were serial diluted in 0.5 mL microcentrifuge tubes by mixing and transferring 50 μL from the highest concentration to 50 μL of water, mixing and transferring 50 μL of this 2-fold dilution to 50 μL of water. This mixing and transferring was repeated so that there are a total of 8 tubes with serial dilutions of compound at 10× the desired screening concentration that are ultimately diluted to 1× by the addition of S30 luciferase synthesis mixture. Serial dilutions of compounds were added (2 μL) to wells in a black round bottom 96-well plate. Water (2 μL) was used as a “no inhibitor” control in 4 wells/plate. No DNA control reaction mixture (20 μL; see below) was used as a control in 4 wells/plate for background luminescence. S30 luciferase synthesis mixture (18 μL; see below) was added to wells with compounds or water mixture and incubated at 37° C. for 1 hour. Reactions were stopped by transferring to 4° C. refrigerator for 5 minutes then 25 μL of luciferase activity mix was added. Luminescence was measured using a BioTek Synergy HTX plate reader. % Inhibition was determined relative to no inhibitor controls.
S30 luciferase synthesis mixture:
• 445 μL S30 extract, circular • 712 μL S30 Premix without amino acids • 4.45 μL pBESTluc™ DNA (1 μg/μL) • 78 μL complete amino acid mixture • 267 μL water No DNA control: • 20 μL S30 extract, circular • 32 μL S30 Premix without amino acids • 7 μL complete amino acid mixture • 21 μL water Rabbit Reticulocyte lysate

Experiment [2] deals with Rabbit Reticulocyte Lysate (eukaryotic protein synthesis). The experiment is described as follows: Rabbit reticulocyte lysate luciferase assay (inhibition of eukaryotic protein synthesis). The settings on record: read-out: Rabbit reticulocyte IC50 (μM/% inhib.). The experiment is classed as biochemical. The method, then: Inhibition of eukaryotic protein synthesis was determined using the Rabbit Reticulocyte Lysate System, Nuclease-Treated from Promega (catalog #L-4960) with slight modifications to the manufacturer's protocol. Compounds were serial diluted in 0.5 mL microcentrifuge tubes by mixing and transferring 50 μL from the highest concentration to 50 μL of water, mixing and transferring 50 μL of this 2-fold dilution to 50 μL of water. This mixing and transferring was repeated so that there are a total of 8 tubes with serial dilutions of compound at 10× the desired screening concentration that are ultimately diluted to 1× by the addition of rabbit reticulocyte luciferase synthesis mixture. Serial dilutions of compounds were added ([…]) to wells in a black round bottom 96-well plate. Water (2.5 μL) was used as a “no inhibitor” control in 4 wells/plate. No RNA control reaction mixture ([…]; see below) was used as a control in 4 wells/plate for background luminescence. Rabbit reticulocyte luciferase synthesis mixture (22.5 μL; see below) was added to wells with compounds or water mixture and incubated at 30° C. for 90 minutes. Luciferase assay reagent (25 μL) was added with luminescence measured using a BioTek Synergy HTX plate reader. % Inhibition was determined relative to no inhibitor controls.
Rabbit reticulocyte luciferase synthesis mixture:
• 1,000 μL rabbit reticulocyte lysate • 5.7 μL Luciferase Control RNA (1 μg/μL) • 26 μL complete amino acid mixture • 395 μL water No RNA Control • 70 μL rabbit reticulocyte lysate • 2 μL complete amino acid mixture • 28 μL water Minimum Inhibitory Concentration (MIC)

Where [3] appears, read: class by IC50 or % inhibition @ 1 μM.

Where two headings read alike, the source gives them in different places.

In the case of `CC1CN(Cc2ccc(-n3ccc(NC(=O)N4CCN(C(=O)[C@@](C)(N)CO)CC4)nc3=O)cc2)CCC1N` (stereo in doubt) [Compound 224], the figures for the IC50 in experiment [1] (setting [3]) and in experiment [2] (setting [3]) were < 0.5 µM and > 1 µM, respectively.
Turning to `CC1(N)CCN(CCc2ccc(-n3ccc(NC(=O)N4CCN(C(=O)C(C)(N)CO)CC4)nc3=O)cc2)CC1` (stereo in doubt) [Compound 361], the IC50 in experiment [1] (% inhibition @ 1 μM) and in experiment [2] (% inhibition @ 1 μM) was > 1 µM throughout.
In the case of `CC(C)(N)C(=O)N1CCN(C(=O)Nc2ccn(-c3ccc(CCN4CCC(CN)CC4)cc3)c(=O)n2)CC1` [Compound 1], the IC50 in experiment [1] (setting [3]) is 0.5 to 1 µM; in experiment [2] (setting [3]), > 1 µM.
On to `CC(C)(N)C(=O)N1CCN(C(=O)Nc2ccn(-c3cccc(CCN4CCCC(CN)C4)c3)c(=O)n2)CC1` (stereo not shown) [Compound 3], for which, in experiment [1] (setting [3]), the IC50 was > 1 µM.
Consider `CNC1CCN(CCc2cccc(-n3ccc(NC(=O)N4CCN(C(=O)C(C)(C)N)CC4)nc3=O)c2)CC1` [Compound 4], for which the IC50 in experiment [1] (setting [3]) was > 1 µM.
For `CC(C)(N)C(=O)N1CCN(C(=O)Nc2ccn(-c3cccc(CCN4CC[C@@H](N)C4)c3)c(=O)n2)CC1` [Compound 5], the IC50 in experiment [1] (setting [3]) and in experiment [2] (setting [3]) was > 1 µM throughout.
`CC(C)(N)C(=O)N1CCN(C(=O)Nc2ccn(-c3cccc(CCN4CC[C@H](N)C4)c3)c(=O)n2)CC1` [Compound 6]: the IC50 in experiment [1] (setting [3]) and in experiment [2] (setting [3]) was > 1 µM each time.
Consider `CC(C)(N)C(=O)N1CCN(C(=O)Nc2ccn(-c3ccc(CCN4CC[C@H](N)C4)cc3)c(=O)n2)CC1` [Compound 7], for which the IC50 in experiment [1] (setting [3]) was > 1 µM.
On to `CC(C)(N)C(=O)N1CCN(C(=O)Nc2ccn(-c3ccc(CCN4CCC[C@H](N)C4)cc3)c(=O)n2)CC1` [Compound 9], for which the IC50 in experiment [1] (setting [3]) is > 1 µM.
In the case of `CC(C)(N)C(=O)N1CCN(C(=O)Nc2ccn(-c3ccc(CCN4CCCC(CN)C4)cc3)c(=O)n2)CC1` (stereo not shown) [Compound 10], the IC50 in experiment [1] (setting [3]) is < 0.5 µM; in experiment [2] (setting [3]), > 1 µM.
The corresponding values for `C[C@](N)(CO)C(=O)N1CCN(C(=O)Nc2ccn(-c3ccc(CCN4CC[C@@H](N)C4)cc3)c(=O)n2)CC1` [Compound 11] are 0.5 to 1 µM and > 1 µM.
As to `C[C@](N)(CO)C(=O)N1CCN(C(=O)Nc2ccn(-c3ccc(CCN4CC[C@H](N)C4)cc3)c(=O)n2)CC1` [Compound 13], the IC50 in experiment [1] (setting [3]) and in experiment [2] (setting [3]) was > 1 µM each time.
With `CC(C)(N)C(=O)N1CCN(C(=O)Nc2ccn(-c3ccc(CCN4CC(N)C4)cc3)c(=O)n2)CC1` [Compound 16], the IC50 in experiment [1] (setting [3]) and in experiment [2] (setting [3]) was > 1 µM each time.
As to `CC(C)(N)C(=O)N1CCN(C(=O)Nc2ccn(-c3ccc(CCN4CC[C@H](CN)C4)cc3)c(=O)n2)CC1` [Compound 17], the IC50 in experiment [1] (setting [3]) was < 0.5 µM; in experiment [2] (setting [3]), > 1 µM.
With `CC(C)(N)C(=O)N1CCN(C(=O)Nc2ccn(-c3ccc(CCN4CC[C@@H](CN)C4)cc3)c(=O)n2)CC1` [Compound 18], the IC50 was < 0.5 µM in experiment [1] (setting [3]) and > 1 µM in experiment [2] (setting [3]).
In the case of `CN(C)C1CCCN(CCc2ccc(-n3ccc(NC(=O)N4CCN(C(=O)C(C)(C)N)CC4)nc3=O)cc2)CC1` (stereo not shown) [Compound 36], the IC50 in experiment [1] (setting [3]) and in experiment [2] (setting [3]) was > 1 µM in each case.
As for `CC(C)(N)C(=O)N1CCN(C(=O)Nc2ccn(-c3ccc(C(C)(C)CN4CCCC(N)CC4)cc3)c(=O)n2)CC1` (stereo not shown) [Compound 37], the IC50 in experiment [1] (setting [3]) and in experiment [2] (setting [3]) was > 1 µM in each case.
As for `CC(C)(N)C(=O)N1CCN(C(=O)Nc2ccn(-c3ccc(C(C)(C)CN4CC[C@@H](CN)C4)cc3)c(=O)n2)CC1` [Compound 38], the IC50 in experiment [1] (setting [3]) and in experiment [2] (setting [3]) was > 1 µM each time.
Regarding `CC(C)(N)C(=O)N1CCN(C(=O)Nc2ccn(-c3ccc(C(C)(C)CN4CC[C@H](CN)C4)cc3)c(=O)n2)CC1` [Compound 39], the IC50 in experiment [1] (setting [3]) and in experiment [2] (setting [3]) was > 1 µM each time.
Turning to `CC(C)(N)C(=O)N1CCN(C(=O)Nc2ccn(-c3ccc(C4(CN5CCCC(N)CC5)CC4)cc3)c(=O)n2)CC1` (stereo not shown) [Compound 40], the IC50 in experiment [1] (setting [3]) and in experiment [2] (setting [3]) was > 1 µM in each case.
As to `NCC1CCCN(C(=O)Nc2ccn(-c3ccc(CN4CCC(N)CC4)cc3)c(=O)n2)C1` (stereo not shown) [Compound 46], the IC50 in experiment [1] (setting [3]) and in experiment [2] (setting [3]) was > 1 µM each time.
`NC1CCN(Cc2ccc(-n3ccc(NC(=O)N4CCC[C@@H](N)C4)nc3=O)cc2)CC1` [Compound 47]: the IC50 in experiment [1] (setting [3]) and in experiment [2] (setting [3]) was > 1 µM each time.
For `NC1CCN(Cc2ccc(-n3ccc(NC(=O)N4CCC[C@H](N)C4)nc3=O)cc2)CC1` [Compound 48], the IC50 in experiment [1] (setting [3]) and in experiment [2] (setting [3]) was > 1 µM each time.
Consider `NC1CCN(Cc2ccc(-n3ccc(NC(=O)N4C[C@H]5CNC[C@H]5C4)nc3=O)cc2)CC1` [Compound 50], for which the IC50 in experiment [1] (setting [3]) and in experiment [2] (setting [3]) was > 1 µM in each case.
For the molecule `NCC1CN(C(=O)Nc2ccn(-c3ccc(CN4CCC(N)CC4)cc3)c(=O)n2)CCO1` (stereo not shown) [Compound 51], the IC50 in experiment [1] (setting [3]) and in experiment [2] (setting [3]) was > 1 µM each time.
Consider `NC[C@H]1CCN(C(=O)Nc2ccn(-c3ccc(CN4CCC(N)CC4)cc3)c(=O)n2)C1` [Compound 52], for which the IC50 in experiment [1] (setting [3]) and in experiment [2] (setting [3]) was > 1 µM in each case.
For the molecule `NC[C@@H]1CCN(C(=O)Nc2ccn(-c3ccc(CN4CCC(N)CC4)cc3)c(=O)n2)C1` [Compound 53], the IC50 in experiment [1] (setting [3]) and in experiment [2] (setting [3]) was > 1 µM each time.
On to `NC1CCN(Cc2ccc(-n3ccc(NC(=O)N4CCCNCC4)nc3=O)cc2)CC1` [Compound 54], for which the IC50 in experiment [1] (setting [3]) and in experiment [2] (setting [3]) was > 1 µM in each case.
On to `CCC1CN(C(=O)C(C)(C)N)CCN1C(=O)Nc1ccn(-c2ccc(CN3CCC(N)CC3)cc2)c(=O)n1` (stereo not shown) [Compound 55], for which the IC50 in experiment [1] (setting [3]) was 0.5 to 1 µM; in experiment [2] (setting [3]), > 1 µM.
For `C[C@@H]1CN(C(=O)C(C)(C)N)[C@@H](C)CN1C(=O)Nc1ccn(-c2ccc(CN3CCC(N)CC3)cc2)c(=O)n1` [Compound 60], in experiment [2] (setting [3]), the IC50 was > 1 µM.
Turning to `COC(=O)[C@@H]1CN(C(=O)C(C)(C)N)CCN1C(=O)Nc1ccn(-c2ccc(CN3CCC(N)CC3)cc2)c(=O)n1` [Compound 63], the IC50 was 0.5 to 1 µM in experiment [1] (setting [3]) and > 1 µM in experiment [2] (setting [3]).
For the molecule `CC[C@H]1CN(C(=O)Nc2ccn(-c3ccc(CN4CCC(N)CC4)cc3)c(=O)n2)CCN1C(=O)C(C)(C)N` [Compound 66], the IC50 in experiment [1] (setting [3]) and in experiment [2] (setting [3]) was > 1 µM each time.
In the case of `CC[C@@H]1CN(C(=O)Nc2ccn(-c3ccc(CN4CCC(N)CC4)cc3)c(=O)n2)CCN1C(=O)C(C)(C)N` [Compound 67], the IC50 in experiment [1] (setting [3]) and in experiment [2] (setting [3]) was > 1 µM each time.
For the molecule `C[C@H]1CN(C(=O)Nc2ccn(-c3ccc(CN4CCC(N)CC4)cc3)c(=O)n2)CCN1C(=O)C(C)(C)N` [Compound 72], the IC50 is 0.5 to 1 µM in experiment [1] (setting [3]) and > 1 µM in experiment [2] (setting [3]).
Turning to `CC(C)(N)C(=O)N1CCN(C(=O)Nc2ccn(-c3ccc(CN4CCC(N)CC4)cc3)c(=O)n2)CC1(C)C` [Compound 73], in experiment [2] (setting [3]), the IC50 is > 1 µM.
Same read-out and setting: for `CC(C)(N)C(=O)N1CCN(C(=O)Nc2ccn(-c3ccc(CN4CCC(N)CC4)cc3)c(=O)n2)CC1c1ccccc1` (stereo not shown) [Compound 75] the value was > 1 µM.
For `C[C@@H]1CN(C(=O)C(C)(C)N)C[C@H](C)N1C(=O)Nc1ccn(-c2ccc(CN3CCC(N)CC3)cc2)c(=O)n1` [Compound 76], the IC50 in experiment [2] (setting [3]) was > 1 µM.
For `CC(C)(N)CC(=O)N1CCN(C(=O)Nc2ccn(-c3ccc(CCN4CCC(N)CC4)cc3)c(=O)n2)CC1` [Compound 197], the IC50 in experiment [1] (setting [3]) is > 1 µM.
